Measurements: article PMC5867641, “Function-Oriented Synthesis of Marine Phidianidine Derivatives as Potential PTP1B Inhibitors with Specific Selectivity” (Marine Drugs, 2018)
Read-outs that look alike come from different tables or passages of the source.

How the values were obtained:
PTP1B = target: T1, PTP1B (Homo sapiens, UniProt P18031); experiment: PTP1B inhibition assay with p-nitrophenyl phosphate (pNPP) as substrate; settings: for % Inhibition (20 μM) on PTP1B: 20 μM compound, 2% DMSO; for inhibition at 20 µM: read-out: % Inhibition (20 μM) on PTP1B; for PTP1B inhibitory activity, in words: screened at 20 μM
T1 sequence (P18031 1-435): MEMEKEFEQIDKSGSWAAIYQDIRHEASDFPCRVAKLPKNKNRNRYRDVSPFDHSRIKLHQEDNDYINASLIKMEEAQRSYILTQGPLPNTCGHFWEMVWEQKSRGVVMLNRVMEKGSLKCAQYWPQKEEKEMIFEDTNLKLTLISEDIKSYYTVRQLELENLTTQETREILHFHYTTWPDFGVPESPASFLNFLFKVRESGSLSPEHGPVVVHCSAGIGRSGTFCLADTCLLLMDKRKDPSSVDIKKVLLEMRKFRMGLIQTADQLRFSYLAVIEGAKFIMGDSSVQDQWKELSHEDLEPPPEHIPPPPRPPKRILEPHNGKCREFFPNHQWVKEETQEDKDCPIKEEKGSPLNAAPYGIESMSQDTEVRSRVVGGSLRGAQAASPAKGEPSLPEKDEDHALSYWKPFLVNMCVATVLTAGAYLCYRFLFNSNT

[1] = target: T2, T-cell protein tyrosine phosphatase (TCPTP) (Homo sapiens, UniProt P17706); experiment: TCPTP inhibition assay (selectivity); type: biochemical; settings: for inhibition at 20 µM / % Inhibition (20 μM) on TCPTP: 20 μM compound, 2% DMSO
T2 sequence (P17706 1-415): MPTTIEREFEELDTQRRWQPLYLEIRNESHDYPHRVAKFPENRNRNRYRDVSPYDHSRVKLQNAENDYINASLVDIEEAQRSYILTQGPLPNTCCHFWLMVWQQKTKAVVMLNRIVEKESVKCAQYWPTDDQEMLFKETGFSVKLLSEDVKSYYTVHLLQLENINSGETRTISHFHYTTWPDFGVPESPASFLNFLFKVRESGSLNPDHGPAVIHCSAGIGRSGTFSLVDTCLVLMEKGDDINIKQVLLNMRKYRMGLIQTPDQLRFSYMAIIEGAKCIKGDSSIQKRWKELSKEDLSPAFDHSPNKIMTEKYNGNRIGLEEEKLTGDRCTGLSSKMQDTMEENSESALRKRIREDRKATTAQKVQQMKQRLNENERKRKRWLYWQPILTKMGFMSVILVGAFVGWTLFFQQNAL
Protocol: The selectivity of all the PTP1B inhibitory compounds was also evaluated against TCPTP.

[2] = read-out: IC50 on PTP1B, pNPP substrate, dose-response run when inhibition >50% at 20 μM

`Clc1ccc(-c2noc(Cc3c[nH]c4ccccc34)n2)cc1` [10c] was tested, and the “% Inhibition (20 μM) on PTP1B” value (PTP1B; pNPP substrate) was 40.0 ± 7.6%.

In the case of `NC(=NOC(=O)Cc1c[nH]c2ccccc12)c1ccc(Cl)cc1` [9c], the “% Inhibition (20 μM) on PTP1B” value (PTP1B; pNPP substrate) is reported as 5.2 ± 1.8%.

For `COc1ccc(C(=O)ON=C(N)Cc2c[nH]c3ccccc23)cc1` [13f], the IC50 (PTP1B; [2]) was greater than 20 µM.

Work on `CCc1ccc(-c2noc(Cc3c[nH]c4ccccc34)n2)cc1` [10e] yielded an inhibition at 20 µM [1] of 15.8%, an IC50 (PTP1B) of 16.8 µM and an inhibition at 20 µM (PTP1B) of 50.5 ± 1.1%.

With `Clc1cccc2[nH]cc(Cc3nc(Cc4c[nH]c5ccccc45)no3)c12` [14u] the “% Inhibition (20 μM) on TCPTP” value [1] was 38.74% and the IC50 (PTP1B; [2]) was 9.7 ± 1.7 µM.

For `Fc1ccccc1-c1nc(Cc2c[nH]c3ccccc23)no1` [14d], the IC50 (PTP1B; [2]) was greater than 20 µM and the “PTP1B inhibitory activity, in words” value (PTP1B) was “no activity”.

`COc1ccc(-c2nc(Cc3c[nH]c4ccccc34)no2)c(Br)c1` [14g] was tested, and the IC50 (PTP1B; [2]) was greater than 20 µM.

`c1ccc(-c2nc(Cc3c[nH]c4ccccc34)no2)nc1` [14o] gave an IC50 (PTP1B; [2]) greater than 20 µM.

In the case of `COc1ccc(-c2nc(Cc3c[nH]c4ccccc34)no2)cc1` [14f], the IC50 (PTP1B; [2]) is reported as greater than 20 µM and the “PTP1B inhibitory activity, in words” value (PTP1B) is reported as “no activity”.

For `NC(=NOC(=O)Cc1c[nH]c2ccccc12)c1ccc([N+](=O)[O-])cc1` [9d], the “% Inhibition (20 μM) on PTP1B” value (PTP1B; pNPP substrate) was 9.8 ± 7.1%.

With `O=[N+]([O-])c1ccc(-c2noc(Cc3c[nH]c4ccccc34)n2)cc1` [10d] the “% Inhibition (20 μM) on PTP1B” value (PTP1B; pNPP substrate) was 44.5 ± 0.3%.

With `FC(F)(F)c1ccc(-c2nc(Cc3c[nH]c4ccccc34)no2)cc1` [14e] the IC50 (PTP1B; [2]) was greater than 20 µM.

`NC(Cc1c[nH]c2ccccc12)=NOC(=O)CCCCBr` [13i] was tested, and the IC50 (PTP1B; [2]) was greater than 20 µM.

For `NC(Cc1c[nH]c2ccccc12)=NOC(=O)c1ccccc1F` [13d], the IC50 (PTP1B; [2]) was greater than 20 µM.

Compound `CCCCC(=O)ON=C(N)Cc1c[nH]c2ccccc12` [13h] has an IC50 (PTP1B; [2]) greater than 20 µM.

For `CCCCc1ccc(-c2nc(Cc3c[nH]c4ccccc34)no2)cc1` [14b], the “% Inhibition (20 μM) on TCPTP” value [1] was 50.31% and the IC50 (PTP1B; [2]) was 7.1 ± 0.1 µM.

For `NC(=NOC(=O)Cc1c[nH]c2ccccc12)c1ccc(F)cc1` [9b], the “% Inhibition (20 μM) on PTP1B” value (PTP1B; pNPP substrate) was 14.0 ± 4.3%.

For `c1ccc2c(Cc3noc(C4CCCCC4)n3)c[nH]c2c1` [14n], the “% Inhibition (20 μM) on TCPTP” value [1] was 11.68%, the “TCPTP inhibitory activity, in words” value ([1]; at the concentration of 20 μM) was “lowest inhibitory percentage” and the IC50 (PTP1B; [2]) was 5.3 ± 0.7 µM.

`CC(=O)OCCCCc1nc(Cc2c[nH]c3ccccc23)no1` [14i] was tested, and the IC50 (PTP1B; [2]) was greater than 20 µM and the “PTP1B inhibitory activity, in words” value (PTP1B) was “disappearance of the inhibitory activity”.

With `CCc1ccc(C(N)=NOC(=O)Cc2c[nH]c3ccccc23)cc1` [9e] the “% Inhibition (20 μM) on PTP1B” value (PTP1B; pNPP substrate) was 23.4 ± 3.7%.

`COc1ccc(C(=O)ON=C(N)Cc2c[nH]c3ccccc23)c(Br)c1` [13g] showed an IC50 (PTP1B; [2]) greater than 20 µM.

With `CCCCCCc1ccc(-c2nc(Cc3c[nH]c4ccccc34)no2)cc1` [14c] the “% Inhibition (20 μM) on TCPTP” value [1] was 54.18% and the IC50 (PTP1B; [2]) was 4.9 ± 0.8 µM.

For `NC(Cc1c[nH]c2ccccc12)=NOC(=O)c1ccc(C(F)(F)F)cc1` [13e], the IC50 (PTP1B; [2]) was greater than 20 µM.

`N=C(N)NCCCCCNc1noc(Cc2c[nH]c3ccccc23)n1` [Phidianidine B (2), phidianidine B, reference compound] was tested, and the inhibition at 20 µM (PTP1B) was 23.5 ± 2.6%.

In the case of `CC(C)c1nc(Cc2c[nH]c3ccccc23)no1` [14j], the IC50 (PTP1B; [2]) is reported as greater than 20 µM.

In the case of `CCc1ccc(-c2nc(Cc3c[nH]c4ccccc34)no2)cc1` [14a], the inhibition at 20 µM [1] is reported as 9.22% and the IC50 (PTP1B) is reported as 13.5 ± 0.6 µM.

For `NC(=NOC(=O)Cc1c[nH]c2ccccc12)c1ccccc1` [9a], the “% Inhibition (20 μM) on PTP1B” value (PTP1B; pNPP substrate) was 7.3 ± 6.8%.

With `ClC(Cl)c1nc(Cc2c[nH]c3ccccc23)no1` [14k] the IC50 (PTP1B; [2]) was greater than 20 µM.

With `c1ccc2c(Cc3noc(C4CCC4)n3)c[nH]c2c1` [14l] the “% Inhibition (20 μM) on TCPTP” value [1] was 25.52% and the IC50 (PTP1B; [2]) was 8.6 ± 1.5 µM.

`Fc1ccc(-c2noc(Cc3c[nH]c4ccccc34)n2)cc1` [10b] was tested, and the “% Inhibition (20 μM) on PTP1B” value (PTP1B; pNPP substrate) was 19.8 ± 0.1%.

In the case of `c1ccc2c(Cc3noc(C4CCCC4)n3)c[nH]c2c1` [14m], the IC50 (PTP1B; [2]) is reported as greater than 20 µM and the “PTP1B inhibitory activity, in words” value (PTP1B) is reported as “lack of activity”.

With `c1ccc(-c2noc(Cc3c[nH]c4ccccc34)n2)cc1` [10a] the “% Inhibition (20 μM) on PTP1B” value (PTP1B; pNPP substrate) was 2.4 ± 1.2%.

For `CCCCCCc1ccc(C(=O)ON=C(N)Cc2c[nH]c3ccccc23)cc1` [13c], the IC50 (PTP1B; [2]) was greater than 20 µM.

In the case of `CCCCc1nc(Cc2c[nH]c3ccccc23)no1` [14h], the IC50 (PTP1B; [2]) is reported as greater than 20 µM and the “PTP1B inhibitory activity, in words” value (PTP1B) is reported as “disappearance of the inhibitory activity”.

Compound `Fc1ccc2[nH]cc(Cc3nc(Cc4c[nH]c5ccccc45)no3)c2c1` [14q] has an IC50 (PTP1B; [2]) greater than 20 µM.

In the case of `Brc1ccc2[nH]cc(Cc3nc(Cc4c[nH]c5ccccc45)no3)c2c1` [14s], the “% Inhibition (20 μM) on TCPTP” value [1] is reported as 34.51% and the IC50 (PTP1B; [2]) is reported as 7.4 ± 0.1 µM.

In the case of `CCc1ccc(C(=O)ON=C(N)Cc2c[nH]c3ccccc23)cc1` [13a], the IC50 (PTP1B; [2]) is reported as greater than 20 µM.
